Results on 24 compounds are retold here after patent US9682976B2, “Protein kinase C inhibitors and uses thereof” (Rigel Pharmaceuticals, Inc., priority 2012, dated 2017).

pEC50: −log10 of the molar value. Where only a bound is given, the exact number is not on record here.

The test system of this assay is PKC mediated IL-2 production. As to the kind of experiment: IL-2 ELISA, human primary T cell, anti CD3+CD28+. The assay is classed as cell-based. The note with it: human primary T cells stimulated with αCD3 and αCD28, 24 hours. In outline:
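IL-2 was quantified by ELISA in 24 h supernatants from primary human T cells given a 1 h compound pre-treatment at 37° C. These cells had been expanded from blood mononuclear cells on αCD3/αCD28 with IL-2, and the IL-2 was removed by washing. Stimulation used plate-bound αCD3 ([…]) plus αCD28 (5 μg/ml); the counter assay used PMA (0.5 ng/ml) with ionomycin (0.1 uM) instead.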
Background: ELISA stands for enzyme-linked immunosorbent assay.

For `CC1C(Nc2nc(Nc3cc(-n4nnn(C)c4=O)c(C4CC4)cc3F)ncc2F)CC(C)(C)N2CCCC12` (stereo not drawn) [Compound 69, 1-(5-(5-Fluoro-4-(octahydro-5,5,8-trimethylindolizin-7-ylamino)pyrimidin-2-ylamino)-2-cyclopropyl-4-fluorophenyl)-4-methyl-1H-tetrazol-5(4H)-one], the pEC50 (Homo sapiens, T-cell, 24 h) was 6.00 to 6.30.

`Cn1nnn(-c2cc(Nc3ncc(F)c(NC4CC5CCCN5C(C)(C)C4)n3)ccc2OC2CCOCC2)c1=O` (stereo not drawn) [Compound 51, 1-(5-(5-fluoro-4-(octahydro-5,5-dimethylindolizin-7-ylamino)pyrimidin-2-ylamino)-2-(tetrahydro-2H-pyran-4-yloxy)phenyl)-4-methyl-1H-tetrazol-5(4H)-one] had a pEC50 (Homo sapiens, T-cell, 24 h) of 6.30 to 7.00.

`Cn1nnn(-c2cc(Nc3ncc(F)c(N[C@@H]4C[C@@H]5CCCN5C(C)(C)C4)n3)c(F)cc2OC2CCOCC2)c1=O` [Compound 114, 1-(5-((4-(((7R,8aS)-5,5-dimethyloctahydroindolizin-7-yl)amino)-5-fluoropyrimidin-2-yl)amino)-4-fluoro-2-((tetrahydro-2H-pyran-4-yl)oxy)phenyl)-4-methyl-1,4-dihydro-5H-tetrazol-5-one] gave a pEC50 (Homo sapiens, T-cell, 24 h) of 6.00 to 6.30.

On to `CC1(C)Oc2ccc(Nc3ncc(F)c(N[C@H]4C[C@@H]5CCCN5C(C)(C)C4)n3)cc2-n2nnnc21` (single isomer, unassigned) [Compound 3, N2-(4,4-dimethyl-4H-benzo[b]tetrazolo[1,5-d][1,4]oxazin-8-yl)-5-fluoro-N4-(octahydro-5,5-dimethylindolizin-7-amine)pyrimidine-2,4-diamine], for which the pEC50 is 6.00 to 6.30.

Take `COc1cc(F)c(Nc2ncc(F)c(N[C@@H]3C[C@@H]4CCCN4C(C)(C)C3)n2)cc1-n1nnn(C)c1=O` [Compound 22, 1-(5-(4-((7R,8aS)-5,5-dimethyl-octahydroindolizin-7-ylamino)-5-fluoropyrimidin-2-ylamino)-4-fluoro-2-methoxyphenyl)-4-methyl-1H-tetrazol-5(4H)-one]: the pEC50 (Homo sapiens, T-cell, 24 h) is 6.30 to 7.00.

Under “Homo sapiens, T-cell, 24 h”, `Cn1nnn(-c2cc(Nc3ncc(F)c(NC4CCN5CCCC5C4)n3)c(F)cc2C2CC2)c1=O` (racemic) [Compound 27, (±)-1-(5-(5-fluoro-4-(octahydroindolizin-7-ylamino)pyrimidin-2-ylamino)-2-cyclopropyl-4-fluorophenyl)-4-methyl-1H-tetrazol-5(4H)one] had a pEC50 of 5.00 to 6.00.

`Cn1nc2n(c1=O)-c1cc(Nc3ncc(F)c(N[C@@H]4C[C@@H]5CCCN5C(C)(C)C4)n3)ccc1OC2(CO)CO[Si](C)(C)C(C)(C)C` (stereo partly drawn) [Compound 287, 5-fluoro-N2-(1H-2,4-dihydron-4-(hydroxymethyl)-4-(((1,1-dimethylethyl)dimethylsilyl)oxymethyl)-2-methyl-[1,2,4]triazolo[3,4-c][1,4]benzoxazin-1-one-8-yl)-N4-((7R,8aS)-octahydro-5,5-dimethylindolizin-7-yl)pyrimidine-2,4-diamine] showed a pEC50 (T-cell) of 5.00 to 6.00.

`COCC1(COC)Oc2ccc(Nc3ncc(F)c(N[C@@H]4C[C@@H]5CCCN5C(C)(C)C4)n3)cc2-n2c1nn(C)c2=O` [Compound 296, 5-fluoro-N2-(1H-2,4-dihydron-2-methyl-4,4-di(methoxymethyl)[1,2,4]triazolo[3,4-c][1,4]benzoxazin-1-one-8-yl)-N4-((7R,8aS)-octahydro-5,5-dimethylindolizin-7-yl)pyrimidine-2,4-diamine]: the pEC50 (Homo sapiens, T-cell, 24 h) was 6.00 to 6.30.

Consider `Cn1nc2n(c1=O)-c1cc(Nc3ncc(F)c(N[C@@H]4C[C@@H]5CCCN5C(C)(C)C4)n3)ccc1OCC2(C)O` (stereo partly drawn) [Compound 295, 5-fluoro-N2-(1H-2,3,4,5-tetrahydron-2,4-dimethyl-4-hydroxy-[1,2,4]triazolo[4,5-c][1,5]benzoxazepin-1-one-9-yl)-N4-((7R,8aS)-octahydro-5,5-dimethylindolizin-7-yl)pyrimidine-2,4-diamine], for which the pEC50 is 6.00 to 6.30.

Compound `CC1(C)C[C@H](Nc2nc(Nc3cc(-n4cnnn4)c(C4CC4)cc3F)ncc2F)C[C@@H]2CC(F)(F)CN21` [Compound 46, N^2-(4-cyclopropyl-2-fluoro-5-(1H-tetrazol-1-yl)phenyl)-5-fluoro-N^4-((7R,8aR)-2,2-difluoro-octahydro-5,5-dimethylindolizin-7-yl)pyrimidine-2,4-diamine] showed a pEC50 (Homo sapiens, T-cell, 24 h) of 6.00 to 6.30.

Under “Homo sapiens, T-cell, 24 h”, `Cn1nnn(-c2cc(Nc3ncc(F)c(N[C@@H]4C[C@@H]5CCCN5C(C)(C)C4)n3)c(F)cc2OCCN2CCOCC2)c1=O` [Compound 195, 1-(5-((4-(((7R,8aS)-5,5-dimethyloctahydroindolizin-7-yl)amino)-5-fluoropyrimidin-2-yl)amino)-4-fluoro-2-(2-morpholinoethoxy)phenyl)-4-methyl-1,4-dihydro-5H-tetrazol-5-one] had a pEC50 of 6.00 to 6.30.

As to `COc1ccc(Nc2ncc(F)c(N[C@@H]3C[C@@H]4CCCN4C(C)(C)C3)n2)cc1-n1nnn(CC(C)(C)O)c1=O` [Compound 290, 1-(5-(4-((7R,8aS)-octahydro-5,5-dimethylindolizin-7-ylamino)-5-fluoropyrimidin-2-ylamino)-2-methoxyphenyl)-4-(2-hydroxy-2-methylpropyl)-1H-tetrazol-5(4H)-one], the pEC50 (Homo sapiens, T-cell, 24 h) is 6.30 to 7.00.

For `CC(=O)O[C@H]1[C@H](OC(C)=O)C(Oc2cc(F)c(Nc3ncc(F)c(N[C@@H]4C[C@@H]5CCCN5C(C)(C)C4)n3)cc2-n2nnn(C)c2=O)OC[C@H]1OC(C)=O` (stereo partly drawn) [Compound 191, (3S,4R,5R)-2-(4-((4-(((7R,8aS)-5,5-dimethyloctahydroindolizin-7-yl)amino)-5-fluoropyrimidin-2-yl)amino)-5-fluoro-2-(4-methyl-5-oxo-4,5-dihydro-1H-tetrazol-1-yl)phenoxy)tetrahydro-2H-pyran-3,4,5-triyl triacetate], the pEC50 (Homo sapiens, T-cell, 24 h) was 5.00 to 6.00.

Consider `COc1cc(Nc2ncc(F)c(N[C@H]3C[C@@H]4CCCN4C(C)(C)C3)n2)cc(-n2nnnc2C)c1` (single isomer, unassigned) [Compound 13, (R/S, S/R, R/R, S/S)-5-fluoro-N4-(octahydro-5,5-dimethylindolizin-7-yl)N2-(3-methoxy-5-(5-methyl-1H-tetrazol-1-yl)phenyl)pyrimidine-2,4-diamine], for which the pEC50 is more than 7.00.

For the compound `CC1(C)C[C@H](Nc2nc(Nc3ccc(N4CC(O)C4)c(C(F)(F)F)c3)ncc2F)C[C@@H]2CCCN21` [Compound 326, 1-(4-(4-((7R,8aS)-octahydro-5,5-dimethylindolizin-7-ylamino)-5-fluoropyrimidin-2-ylamino)-2-(trifluoromethyl)phenyl)azetidin-3-ol], for the setting “Homo sapiens, T-cell, 24 h”, the pEC50 was 6.30 to 7.00.

Turning to `Cc1nnnn1-c1cc(Nc2ncc(F)c(N[C@@H]3C[C@@H]4CCCN4C(C)(C)C3)n2)c(F)cc1OC1COC1` [Compound 249, 5-fluoro-N2-(2-fluoro-5-(5-methyl-1H-tetrazol-1-yl)-4-(oxetan-3-yloxy)phenyl)-N4-((7R,8aS)-octahydro-5,5-dimethylindolizin-7-yl)pyrimidine-2,4-diamine], the pEC50 (Homo sapiens, T-cell, 24 h) was more than 7.00.

`Cn1nnn(-c2cc(Nc3ncc(F)c(NC4CCN5CCCC5C4)n3)c(F)cc2C2CC2)c1=O` (stereo not drawn) [Compound 29] showed a pEC50 of 5.00 to 6.00.

`Cn1nnn(-c2cc(Nc3ncc(F)c(N[C@@H]4C[C@@H]5CCCN5C(C)(C)C4)n3)c(F)cc2OCC2CCOCC2)c1=O` [Compound 170, 1-(5-((4-(((7R,8aS)-5,5-dimethyloctahydroindolizin-7-yl)amino)-5-fluoropyrimidin-2-yl)amino)-4-fluoro-2-((tetrahydro-2H-pyran-4-yl)methoxy)phenyl)-4-methyl-1,4-dihydro-5H-tetrazol-5-one]: the pEC50 (Homo sapiens, T-cell, 24 h) is 6.30 to 7.00.

Compound `Cn1nnn(-c2cc(Nc3ncc(F)c(NC4CC5CCCN5C(C)(C)C4)n3)ccc2OC2COC2)c1=O` (single isomer, unassigned) [Compound 39, 1-(5-(5-fluoro-4-(octahydro-5,5-dimethylindolizin-7-ylamino)pyrimidin-2-ylamino)-2-(oxetan-3-yloxy)phenyl)-4-methyl-1H-tetrazol-5(4H)-one] showed a pEC50 (Homo sapiens, T-cell, 24 h) of 6.30 to 7.00.

Take `CO[C@@H](C)COc1cc(F)c(Nc2ncc(Cl)c(N(C[C@H](C)OC)[C@@H]3C[C@@H]4CCCN4C(C)(C)C3)n2)cc1-n1nnn(C)c1=O` [Compound 239, 1-(5-((5-chloro-4-(((7R,8aS)-5,5-dimethyloctahydroindolizin-7-yl)((S)-2-methoxypropyl)amino)pyrimidin-2-yl)amino)-4-fluoro-2-((S)-2-methoxypropoxy)phenyl)-4-methyl-1,4-dihydro-5H-tetrazol-5-one]: the pEC50 (Homo sapiens, T-cell, 24 h) is less than 5.00.

As for `CC1(C)CC[C@H]2C[C@@H](Nc3nc(Nc4ccc(OC5CC(O)C5)c(OC(F)F)c4)ncc3F)CCN21` (stereo partly drawn) [Compound 306, 3-(2-(Difluoromethoxy)-4-((4-(((7S,8aS)-3,3-dimethyloctahydroindolizin-7-yl)amino)-5-fluoropyrimidin-2-yl)amino)phenoxy)cyclobutan-1-ol], the pEC50 (Homo sapiens, T-cell, 24 h) was 6.30 to 7.00.

In the case of `Cc1ncc(Nc2ncc(F)c(NC3CC4CCCN4C(C)(C)C3)n2)cc1-n1nnnc1C` (stereo not drawn) [Compound 15], the pEC50 was 6.30 to 7.00.

Take `Cn1nnn(-c2cc(Nc3ncc(F)c(N[C@H]4C[C@H]5CCCN5C(C)(C)C4)n3)c(F)cc2C2CC2)c1=O` [Compound 18, 1-(5-(4-((7S,8aR)-Octahydro-5,5-dimethylindolizin-7ylamino)-5-fluoropyrimidin-2-ylamino)-2-cyclopropyl-4-fluorophenyl)-4-methyl-1H-tetrazol-5(4H)-one]: where the note is “Homo sapiens, T-cell, 24 h”, the pEC50 was 6.00 to 6.30.

For the compound `Cc1cc(Nc2ncc(F)c(N[C@@H]3C[C@@H]4CCCN4C(C)(C)C3)n2)ccc1OCCO` [Compound 134, 2-(4-((4-(((7R,8aS)-5,5-dimethyloctahydroindolizin-7-yl)amino)-5-fluoropyrimidin-2-yl)amino)-2-(methyl)phenoxy)ethan-1-ol], for the setting “Homo sapiens, T-cell, 24 h”, the pEC50 is 6.30 to 7.00.

One may read the pEC50 as −log10 of the EC50, conventionally taken in molar units. High values mean a low EC50, low ones a high EC50.
